The test concerns the target PDE10A (Homo sapiens, UniProt Q9Y233). As to the kind of experiment: Phosphodiesterase assay (TR-FRET, LANCE cAMP kit). It counts as biochemical. The note with it: PDE10A (BPS Bioscience) 200 pg/well, biotin-cAMP substrate, 60 min at room temperature. As for the experimental part:
The PDE assay is based on the homogenous time-resolved fluorescence resonance energy transfer (TR-FRET) technology (LANCE® from Perkin Elmer). […] When there is PDE activity, resulting in the degradation of the cyclic nucleotide, the complex is not formed and a decrease in signal is observed.
The phosphodiesterase assay was developed using the LANCE® cAMP kit (PerkinElmer). The assay buffer contained HBSS with 5 mM HEPES, 0.1% BSA, and 1.5 mM MgCl2, pH 7.4. PDE10A (BPS Bioscience) was used at 200 pg/well (with a specific activity of 3200 pmole/min/μg with assay conditions: 10 mM Tris-HCl, pH7.4, 10 mM MgCl2, 1 mM MnCl2, 200 μM cAMP, 2.5 kU 5′ nucleotidase, 37° C., 20 min). […] Chemical compounds were dissolved in DMSO (final concentration 2% (v/v)).
In a 384-well plate, 2 μL inhibitor and 3 μL PDE were added to the well, followed by the addition of 5 μl substrate biotinylated cAMP (1:5). After 60 min incubation at room temperature, 10 μL of assay detection mixture was added to the assay plate. After 1 h at room temperature, the signal was measured on EnVision™ (Perkin Elmer).
(Time-resolved FRET reads energy transfer from a long-lived donor to a nearby acceptor.)

Each structure is given as a SMILES string. Structures can show the parent of a compound that is named as a salt.

The term IC50 denotes the point on the concentration scale where inhibition reaches its midpoint. Read a high IC50 as weaker potency.

Chain of PDE10A (Q9Y233 whole entry, looked up): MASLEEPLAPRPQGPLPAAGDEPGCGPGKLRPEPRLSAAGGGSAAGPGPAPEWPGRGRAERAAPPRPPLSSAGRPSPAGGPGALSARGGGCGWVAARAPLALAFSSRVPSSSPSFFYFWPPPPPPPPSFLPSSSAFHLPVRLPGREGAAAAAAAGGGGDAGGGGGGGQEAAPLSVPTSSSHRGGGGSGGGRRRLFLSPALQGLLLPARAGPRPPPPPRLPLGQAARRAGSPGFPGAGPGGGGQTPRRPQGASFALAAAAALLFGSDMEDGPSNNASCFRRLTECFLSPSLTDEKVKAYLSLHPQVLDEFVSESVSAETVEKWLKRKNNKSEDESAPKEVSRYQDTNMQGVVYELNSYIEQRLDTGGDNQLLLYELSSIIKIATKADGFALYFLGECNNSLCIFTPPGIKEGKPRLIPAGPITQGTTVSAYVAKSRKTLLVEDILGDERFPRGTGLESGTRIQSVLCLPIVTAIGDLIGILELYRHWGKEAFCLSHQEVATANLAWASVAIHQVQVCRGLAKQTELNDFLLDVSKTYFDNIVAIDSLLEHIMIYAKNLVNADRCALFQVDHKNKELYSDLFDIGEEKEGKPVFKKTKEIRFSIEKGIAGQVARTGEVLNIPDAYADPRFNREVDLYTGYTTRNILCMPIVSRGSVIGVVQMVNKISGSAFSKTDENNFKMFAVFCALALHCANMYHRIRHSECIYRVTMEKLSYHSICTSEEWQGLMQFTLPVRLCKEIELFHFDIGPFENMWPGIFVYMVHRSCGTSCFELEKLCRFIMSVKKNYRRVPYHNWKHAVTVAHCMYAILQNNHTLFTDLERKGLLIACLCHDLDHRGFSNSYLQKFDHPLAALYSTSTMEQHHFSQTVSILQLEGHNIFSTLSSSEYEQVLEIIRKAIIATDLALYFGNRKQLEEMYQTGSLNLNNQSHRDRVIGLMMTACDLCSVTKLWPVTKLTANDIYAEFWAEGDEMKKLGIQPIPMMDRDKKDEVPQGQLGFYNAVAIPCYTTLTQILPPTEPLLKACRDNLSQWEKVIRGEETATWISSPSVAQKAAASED

The molecule `CCCc1nc(O)c(Cc2cc3cc(C)ccc3nc2N(C)C)c2cc(OC)c(OC)cc12` [Compound 36, 4-((2-(Dimethylamino)-6-methylquinolin-3-yl)methyl)-6,7-dimethoxy-1-propylisoquinolin-3-ol dihydrochloride] had an IC50 of 698 nM. As to `CCCNc1nc2ccc(OC)cc2cc1Cc1c(O)nc(C)c2cc(OC)c(OC)cc12` [Compound 38, 6,7-dimethoxy-4-((6-methoxy-2-(propylamino)quinolin-3-yl)methyl)-1-methylisoquinolin-3-ol dihydrochloride], it took 2.7 nM to reach half-maximal inhibition (IC50). The molecule `CCc1nc(O)c(Cc2cc3cc(OC)ccc3nc2NC(C)C)c2cc(OC)c(OC)cc12` [Compound 43, 1-Ethyl-4-((2-(isopropylamino)-6-methoxyquinolin-3-yl)methyl)-6,7-dimethoxyisoquinolin-3-ol dihydrochloride] returned an IC50 of 3.5 nM.

In turn, `CCc1nc(O)c(Cc2cc3cc(OC)ccc3nc2NCC(F)(F)F)c2cc(OC)c(OC)cc12` [Compound 45, 1-ethyl-6,7-dimethoxy-4-((6-methoxy-2-(2,2,2-trifluoroethylamino)quinolin-3-yl)methyl)isoquinolin-3-ol dihydrochloride] showed a 50% inhibitory concentration (IC50) of 30 nM. As to `CCNc1nc2ccc(OC)cc2cc1Cc1c(O)nc(C(C)C)c2cc(OC)c(OC)cc12` [Compound 47, 4-((2-(ethylamino)-6-methoxyquinolin-3-yl)methyl)-1-isopropyl-6,7-dimethoxyisoquinolin-3-ol dihydrochloride], the IC50 was 11 nM. For `CCCc1nc(O)c(Cc2cc3cc(OCC)ccc3nc2NCC)c2cc(OC)c(OC)cc12` [Compound 49, 4-((6-ethoxy-2-(ethylamino)quinolin-3-yl)methyl)-6,7-dimethoxy-1-propylisoquinolin-3-ol dihydrochloride] the value was 4.6 nM. For `CCCc1nc(O)c(Cc2cc3cc(OC)ccc3nc2NCC)c2cc(OC)c(OC)cc12` [Compound 50, 4-((2-(ethylamino)-6-methoxyquinolin-3-yl)methyl)-6,7-dimethoxy-1-propylisoquinolin-3-ol dihydrochloride] the value was 0.28 nM.

`CCCNc1nc2ccc(OC)cc2cc1Cc1c(O)nc(CCC)c2cc(OC)c(OC)cc12` [Compound 52, 6,7-dimethoxy-4-((6-methoxy-2-(propylamino)quinolin-3-yl)methyl)-1-propylisoquinolin-3-ol dihydrochloride] registered an IC50 of 1.5 nM. For `CCNc1nc2ccc(OC)cc2cc1Cc1c(O)nc(CNS(C)(=O)=O)c2cc(OC)c(OC)cc12` [Compound 58, N-((4-((2-(ethylamino)-6-methoxyquinolin-3-yl)methyl)-3-hydroxy-6,7-dimethoxyisoquinolin-1-yl)methyl)methanesulfonamide dihydrochloride] the value was 221 nM; for `CCCc1nc(O)c(Cc2cc3cc4c(cc3nc2NCC)OCO4)c2cc(OC)c(OC)cc12` [Compound 64, 4-((6-(ethylamino)-[1,3]dioxolo[4,5-g]quinolin-7-yl)methyl)-6,7-dimethoxy-1-propylisoquinolin-3-ol dihydrochloride], 1.2 nM.

With `CCc1nc(O)c(Cc2cc3cc(OC)ccc3nc2NCCOC)c2cc(OC)c(OC)cc12` [Compound 77, 1-Ethyl-6,7-dimethoxy-4-((6-methoxy-2-(2-methoxyethylamino)quinolin-3-yl)methyl)isoquinolin-3-ol dihydrochloride], inhibition was half-maximal at 2 nM (IC50). For `COc1cc2c(C(C)C)nc(O)c(Cc3cnc4ccccc4c3)c2cc1OC` [Compound 79, 1-Isopropyl-6,7-dimethoxy-4-(quinolin-3-ylmethyl)isoquinolin-3-ol dihydrochloride] the value was 88 nM. For `CCCc1nc(O)c(Cc2ccc3nc(C)ccc3c2)c2cc(OC)c(OC)cc12` [Compound 80, 6,7-dimethoxy-4-((2-methylquinolin-6-yl)methyl)-1-propylisoquinolin-3-ol dihydrochloride] the value was 3.2 nM.

For the origin of these results see US8772316B2, “Substituted 6,7-dialkoxy-3-isoquinolinol derivatives as inhibitors of phosphodiesterase 10 (PDE10A)” (Allergan, Inc., priority 2011, dated 2014).
